According to patent US20240216357A1 (SICHUAN HUIYU PHARMACEUTICAL CO., LTD., priority 2021, published 2024):
Counter-ions that a name gives are not always drawn. Like-named read-outs stand apart in the source and are kept apart here.

Experiments:
[1] = biological target: LSD1 (Homo sapiens (Human), UniProt O60341); assay: LSD1 enzyme activity detection (HTRF); type: biochemical; details: read-out: Inhibition of enzymatic activity of LSD1 IC50
[2] = system: NCI-H1417 cells; assay: In vitro cell proliferation detection (CellTiter-Glo, 7 days); type: cell-based; details: Homo sapiens, 168 h; NCI-H1417 cells, 7 days, CellTiter-Glo; read-out: NCI-H1417 proliferation inhibition IC50
[3] = biological target: voltage-gated potassium ion channel hERG (Homo sapiens (Human), UniProt Q12809); assay: hERG inhibition test (manual patch-clamp)
[4] = read-out: hERG IC50, manual patch-clamp

Sequence of voltage-gated potassium ion channel hERG (Q12809 whole entry): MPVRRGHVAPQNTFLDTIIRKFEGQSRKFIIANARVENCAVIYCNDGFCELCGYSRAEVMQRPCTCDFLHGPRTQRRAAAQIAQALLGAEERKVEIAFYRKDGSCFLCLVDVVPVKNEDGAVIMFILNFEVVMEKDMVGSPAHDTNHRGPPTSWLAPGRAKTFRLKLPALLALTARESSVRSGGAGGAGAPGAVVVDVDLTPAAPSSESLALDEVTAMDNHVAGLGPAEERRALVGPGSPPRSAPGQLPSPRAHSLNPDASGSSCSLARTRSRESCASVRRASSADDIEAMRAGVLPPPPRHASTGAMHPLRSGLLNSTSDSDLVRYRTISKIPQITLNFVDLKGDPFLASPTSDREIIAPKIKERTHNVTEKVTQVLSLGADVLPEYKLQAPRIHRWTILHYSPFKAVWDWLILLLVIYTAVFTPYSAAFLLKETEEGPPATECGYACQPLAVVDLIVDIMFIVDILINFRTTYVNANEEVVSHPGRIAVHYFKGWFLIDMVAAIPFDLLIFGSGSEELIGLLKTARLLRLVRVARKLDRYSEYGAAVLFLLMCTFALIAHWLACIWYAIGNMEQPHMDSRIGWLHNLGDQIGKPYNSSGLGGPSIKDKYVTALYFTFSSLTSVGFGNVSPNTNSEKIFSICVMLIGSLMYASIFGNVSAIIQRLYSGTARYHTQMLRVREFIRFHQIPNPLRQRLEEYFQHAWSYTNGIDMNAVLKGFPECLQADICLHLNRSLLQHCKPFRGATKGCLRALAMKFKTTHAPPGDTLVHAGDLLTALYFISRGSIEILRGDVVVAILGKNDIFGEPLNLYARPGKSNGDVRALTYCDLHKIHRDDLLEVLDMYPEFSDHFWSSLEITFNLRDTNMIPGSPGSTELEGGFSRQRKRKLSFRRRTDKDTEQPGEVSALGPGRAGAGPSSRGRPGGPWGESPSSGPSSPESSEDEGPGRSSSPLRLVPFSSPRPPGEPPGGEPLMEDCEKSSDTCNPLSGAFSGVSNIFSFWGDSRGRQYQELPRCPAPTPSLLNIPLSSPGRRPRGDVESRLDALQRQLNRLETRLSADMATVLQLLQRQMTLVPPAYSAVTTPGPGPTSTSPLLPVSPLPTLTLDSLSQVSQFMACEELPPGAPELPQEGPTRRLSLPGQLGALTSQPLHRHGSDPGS

IC50 ([1]; HTRF, H3K4me1 substrate) [nM] | IC50 [2] [nM] | SMILES | IC50 [3] [nM] | IC50 [3, 4] [nM] | IC50 [1] [nM]
0.7 ± 0.02 | 1.76 | COc1ccc(-c2c(OC(C)C)cc(N3CCC(N)CC3)nc2-c2ccc(C#N)c(F)c2)cc1O [Example 104, 4-(6-(4-aminopiperidin-1-yl)-3-(3-hydroxy-4-methoxyphenyl)-4-isopropoxypyridin-2-yl)-2-fluor obenzonitrile] | 6700 | – | –
0.54 ± 0.32 | 1.04 | N#Cc1ccc(-c2nc(N3CCC(N)CC3)n3ccnc3c2-c2ccc(OC(F)(F)F)c(O)c2)cc1F [Example 133, 4-(5-(4-aminopiperidin-1-yl)-8-(3-hydroxy-4-(trifluoromethoxy)phenyl)imidazolo [1,2-c]pyrimidin-7-yl)-2-fluorobenzonitrile hydrochloride] | – | 7170 | –
7 ± 2.1 | 33.2 | COc1ccc(-c2c(O)cc(N3CCC(C)(N)CC3)nc2-c2ccc(C#N)c(F)c2)cc1F [Example 50] | – | 17600 | –
3.15 ± 1.03 | 8.38 | COc1ccc(-c2c(-c3ccc(C#N)c(F)c3)nc(N3CCC(N)CC3)n3ccnc23)cn1 [Example 121, 4-(5-(4-aminopiperidin-1-yl)-8-(6-methoxypyridin-3-yl)imidazolo [1,2-c]pyrimidin-7-yl)-2-fluorobenzonitrile] | – | 6040 | –
0.16 ± 0.11 | 0.467 | COc1cc(N2CCC(N)CC2)nc(-c2ccc(C#N)c(F)c2)c1-c1ccc(C)c(O)c1 [Example 95, 4-(6-(4-aminopiperidin-1-yl)-3-(3-hydroxy-4-methylphenyl)-4-methoxypyridin-2-yl)-2-fluorobenzonitrile hydrochloride] | – | 6920 | –
– | 0.604 | COc1cc(N2CCC(N)CC2)nc(-c2ccc(C#N)c(F)c2)c1-c1ccc(Cl)c(O)c1 [Example 98, 4-(6-(4-aminopiperidin-1-yl)-3-(4-chloro-3-hydroxyphenyl)-4-methoxypyridin-2-yl)-2-fluorobenzonitrile hydrochloride] | – | 5850 | –
3.67 ± 0.72 | 7.45 | Cc1noc2cc(-c3c(O)cc(N4CCC(N)CC4)nc3-c3ccc(C#N)c(F)c3)c(F)cc12 [Example 26, 4-(6-(4-aminopiperidin-1-yl)-3-(5-fluoro-3-methylbenzo[d]isoxazol-6-yl)-4-hydroxypyridin-2-yl)-2-fluorobenzonitrile] | – | > 30000 | –
6.1 ± 1.9 | 7.25 | CC(C)(O)Cc1ccc(-c2c(-c3ccc(C#N)c(F)c3)nc(N3CCC(N)CC3)n3ccnc23)cc1F [Example 134, 4-(5-(4-aminopiperidin-1-yl)-8-(3-fluoro-4-(2-hydroxy-2-methylpropyl)phenyl)imidazolo [1,2-c]pyrimidin-7-yl)-2-fluorobenzonitrile] | – | 18400 | –
8.2 ± 0.1 | 8.78 | COc1cc(N2CCC(N)CC2)nc(-c2ccc(C#N)c(F)c2)c1-c1cc(O)c(F)c(F)c1 [Example 92, 4-(6-(4-aminopiperidin-1-yl)-3-(3,4-difluoro-5-hydroxyphenyl)-4-methoxypyridin-2-yl)-2-fluorobenzonitrile] | – | 10900 | –
2.3 ± 0.04 | 5.45 | COc1ccc(-c2c(OC3CCCC3)cc(N3CCC(N)CC3)nc2-c2ccc(C#N)c(F)c2)cc1O [Example 105, 4-(6-(4-aminopiperidin-1-yl)-4-(cyclopentyloxy)-3-(3-hydroxy-4-methoxyphenyl)pyridin-2-yl)-2-fluorobenzonitrile] | – | 5600 | –
7.2 ± 2.3 | 9.36 | O=C(NC1CCOCC1)c1cc(CN[C@@H]2C[C@H]2c2ccc(F)cc2)nc(-c2ccc(-n3cccn3)cc2)n1 [Example 233] | – | 4470 | –
22.1 | 7.93 | COc1cc(F)c(-c2c(O)cc(N3CCC(N)CC3)nc2-c2ccc(C#N)c(F)c2)cc1F [Example 41, 4-(6-(4-aminopiperidin-1-yl)-3-(2,5-difluoro-4-methoxyphenyl)-4-hydroxypyridin-2-yl)-2-fluorobenzonitrile hydrochloride] | – | > 30000 | –
0.07 ± 0.05 | 0.553 | N#Cc1ccc(-c2nc(N3CCC(N)CC3)n3ccnc3c2-c2ccc(F)c(O)c2)cc1F [Example 137, 4-(5-(4-aminopiperidin-1-yl)-8-(4-fluoro-3-hydroxyphenyl)imidazolo[1,2-c]pyrimidin-7-yl]-2-fluorobenzonitrile] | – | > 10000 | –
47.9 | 3.92 | O=C(c1cc(CN[C@@H]2C[C@H]2c2ccc(F)cc2)nc(-c2ccc(-n3cccn3)cc2)n1)N1CCC(F)(F)CC1 [Example 230] | – | 4990 | –
0.06 ± 0.02 | 0.176 | Cc1ccc(-c2c(-c3ccc(C#N)c(F)c3)nc(N3CCC(N)CC3)n3ccnc23)cc1O [Example 136, 4-(5-(4-aminopiperidin-1-yl)-8-(3-hydroxy-4-methylphenyl)imidazolo[1,2-c]pyrimidin-7-yl)-2-fluorobenzonitrile hydrochloride] | – | > 30000 | –
5.62 | 11.9 | CC(C)(O)Cc1ccc(-c2c(-c3ccc(C#N)c(F)c3)nc(N3CCC(N)CC3)n3ccnc23)c(F)c1 [Example 132, 4-(5-(4-aminopiperidin-1-yl)-8-(2-fluoro-4-(2-hydroxy-2-methylpropyl)phenyl)imidazolo[1,2-c]pyrimidin-7-yl)-2-fluorobenzonitrile hydrochloride] | – | > 30000 | –
7.48 | 5.34 | COc1cc(N2CCC(N)CC2)nc(-c2ccc(C#N)c(F)c2)c1-c1cc2onc(C)c2cc1F [Example 90, 4-(6-(4-aminopiperidin-1-yl)-3-(5-fluoro-3-methylbenzo[d]isoxazol-6-yl)-4-methoxypyridin-2-yl)-2-fluorobenzonitrile] | – | 4620 | –
22.9 | 4.68 | CS(=O)(=O)N1CCN(C(=O)c2cc(CN[C@@H]3C[C@H]3c3ccc(F)cc3)nc(-c3ccc(-n4ccnn4)cc3)n2)CC1 [Example 228] | – | 7210 | –
9.6 ± 2.7 | 8.19 | COc1ccc(-c2c(-c3ccc(C#N)c(F)c3)nc(N3CCC(N)CC3)n3ccnc23)cc1C#N [Example 135, 4-(5-(4-aminopiperidin-1-yl)-8-(3-cyano-4-methoxyphenyl)imidazolo[1,2-c]pyrimidin-7-yl)-2-fluorobenzonitrile] | – | 23400 | –
0.265 | 5.97 | COc1ccc(-c2c(-c3ccc(C#N)c(F)c3)nc(N3CCC(N)CC3)c3[nH]ncc23)cc1O [Example 287, 4-(7-(4-aminopiperidin-1-yl)-4-(3-hydroxy-4-methoxyphenyl)-1H-pyrazolo[3,4-c]pyridin-5-yl)-2-fluorobenzonitrile hydrochloride] | – | – | –

SMILES | IC50 ([1]; HTRF, H3K4me1 substrate) [nM] | IC50 [2] [nM] | IC50 [3] [nM] | IC50 [3, 4] [nM] | IC50 [1] [nM]
COc1ccc(-c2c(-c3ccc(C#N)c(F)c3)nc(N3CCC(N)CC3)n3ccnc23)cc1F [Example 117, 4-(5-(4-aminopiperidin-1-yl)-8-(3-fluoro-4-methoxyphenyl)imidazolo[1,2-c]pyrimidin-7-yl]-2-fl uorobenzonitrile hydrochloride] | – | 3.76 | – | 7190 | 0.46 ± 0.02
